The record followed here is BindingDB's records for doi:10.1021/cc020096o (University of Anterwerp, 2003).

In one assay the target is Dipeptidyl peptidase 4 (Homo sapiens, UniProt P27487). Put plainly: DPP IV Assay. The conditions noted are these: pH 8.3. The protocol:
Inhibitory concentration of the compound against Dipeptidyl peptidase IV (DPP IV) in Homo sapiens (human)is measured

Another assay concerns the target Dipeptidyl peptidase 2 (Homo sapiens, UniProt Q9UHL4). Put plainly: DPP IV Assay. To be noted: pH 5.5.

Structures are written as SMILES.

Chain of Dipeptidyl peptidase 4 (P27487 whole entry): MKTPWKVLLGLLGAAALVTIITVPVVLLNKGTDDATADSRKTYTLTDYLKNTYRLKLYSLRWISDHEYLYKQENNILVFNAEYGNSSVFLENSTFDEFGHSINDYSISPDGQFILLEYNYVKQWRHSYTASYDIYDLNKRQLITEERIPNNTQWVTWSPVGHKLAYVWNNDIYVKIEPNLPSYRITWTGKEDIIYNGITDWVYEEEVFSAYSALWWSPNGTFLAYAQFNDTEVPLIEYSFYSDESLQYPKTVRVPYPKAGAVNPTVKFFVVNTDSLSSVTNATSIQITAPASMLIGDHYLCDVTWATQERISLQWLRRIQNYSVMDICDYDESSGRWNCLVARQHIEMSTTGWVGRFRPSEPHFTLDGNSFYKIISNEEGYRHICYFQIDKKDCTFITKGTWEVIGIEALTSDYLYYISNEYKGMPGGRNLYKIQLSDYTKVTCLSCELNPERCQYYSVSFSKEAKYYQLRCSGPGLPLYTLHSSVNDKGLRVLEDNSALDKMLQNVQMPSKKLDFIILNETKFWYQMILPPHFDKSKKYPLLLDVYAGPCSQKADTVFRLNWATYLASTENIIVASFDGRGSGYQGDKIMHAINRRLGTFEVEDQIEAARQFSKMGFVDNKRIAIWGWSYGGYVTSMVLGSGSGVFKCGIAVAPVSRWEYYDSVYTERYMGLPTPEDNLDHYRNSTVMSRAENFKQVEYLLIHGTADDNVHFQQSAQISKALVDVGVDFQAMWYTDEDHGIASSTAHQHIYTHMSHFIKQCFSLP

In the case of `O=C(CNC1CCCC1)NC(c1ccccc1)P(=O)(Oc1ccccc1)Oc1ccccc1` (centres undefined), the half-maximal inhibitory concentration (IC50) is greater than 125 µM on Dipeptidyl peptidase 4 and 3.8 µM against Dipeptidyl peptidase 2.
In the case of `C[C@H](N)C(=O)N1CCCC1P(=O)(Oc1ccccc1)Oc1ccccc1` (some centres undefined), the IC50 on Dipeptidyl peptidase 4 and against Dipeptidyl peptidase 2 was greater than 1000 µM in each case.
At Dipeptidyl peptidase 2, `NC(=O)C[C@H](N)C(=O)N1CCCC1P(=O)(Oc1ccccc1)Oc1ccccc1` (some centres undefined) had an IC50 greater than 125 µM.
On Dipeptidyl peptidase 4, `N[C@@H](CC(=O)O)C(=O)N1CCCC1P(=O)(Oc1ccccc1)Oc1ccccc1` (some centres undefined) registered a concentration for half-maximal inhibition (IC50) greater than 1000 µM.
As to `N[C@@H](Cc1cnc[nH]1)C(=O)N1CCCC1P(=O)(Oc1ccccc1)Oc1ccccc1` (some centres undefined), at Dipeptidyl peptidase 4, the half-maximal inhibitory concentration (IC50) was 326 µM.
On to `NCCCC[C@H](N)C(=O)N1CCCC1P(=O)(Oc1ccccc1)Oc1ccccc1` (some centres undefined), for which the results for the IC50 against Dipeptidyl peptidase 4 and at Dipeptidyl peptidase 2 were 117 µM and greater than 1000 µM, respectively.
As for `N[C@@H](Cc1ccccc1)C(=O)N1CCCC1P(=O)(Oc1ccccc1)Oc1ccccc1` (some centres undefined), the half-inhibitory concentration (IC50) at Dipeptidyl peptidase 4 is 142 µM; at Dipeptidyl peptidase 2, greater than 1000 µM.
In the case of `CC(NC(=O)CN)P(=O)(Oc1ccccc1)Oc1ccccc1` (centres undefined) [2-amino-N-(1-diphenoxyphosphorylethyl)acetamide], the IC50 at Dipeptidyl peptidase 4 is greater than 500 µM; against Dipeptidyl peptidase 2, greater than 1000 µM.
In the case of `NCC[C@H](N)C(=O)NC(C1CCCCC1)P(=O)(Oc1ccccc1)Oc1ccccc1` (stereo partly drawn) [(2S)-2,4-diamino-N-[cyclohexyl(diphenoxyphosphoryl)methyl]butanamide], the IC50 at Dipeptidyl peptidase 4 turned out to be 1000 µM; against Dipeptidyl peptidase 2, 21 µM.
As for `CCCC(NC(=O)[C@@H](N)CCCCN)P(=O)(Oc1ccccc1)Oc1ccccc1` (stereo partly drawn) [(2S)-2,6-diamino-N-(1-diphenoxyphosphorylbutyl)hexanamide], the IC50 on Dipeptidyl peptidase 4 and against Dipeptidyl peptidase 2 was greater than 1000 µM each time.
Turning to `CC(NC(=O)[C@@H](N)CCCCN)P(=O)(Oc1ccccc1)Oc1ccccc1` (stereo partly drawn) [(2S)-2,6-diamino-N-(1-diphenoxyphosphorylethyl)hexanamide], the half-inhibitory concentration (IC50) on Dipeptidyl peptidase 4 is greater than 500 µM; on Dipeptidyl peptidase 2, greater than 1000 µM.
Consider `N[C@@H](CO)C(=O)N1CCCC1P(=O)(Oc1ccccc1)Oc1ccccc1` (stereo partly drawn) [(2S)-2-amino-1-(2-diphenoxyphosphorylpyrrolidin-1-yl)-3-hydroxy-propan-1-one], for which the IC50 was 503 µM at Dipeptidyl peptidase 4 and greater than 1000 µM at Dipeptidyl peptidase 2.
As for `CCCC(NC(=O)[C@@H](N)CC1CCCCC1)P(=O)(Oc1ccccc1)Oc1ccccc1` (stereo partly drawn) [(2S)-2-amino-3-cyclohexyl-N-(1-diphenoxyphosphorylbutyl)propanamide], the 50% inhibitory concentration (IC50) was greater than 250 µM against Dipeptidyl peptidase 4 and 500 µM against Dipeptidyl peptidase 2.
Turning to `CC(NC(=O)[C@@H](N)CC1CCCCC1)P(=O)(Oc1ccccc1)Oc1ccccc1` (stereo partly drawn) [(2S)-2-amino-3-cyclohexyl-N-(1-diphenoxyphosphorylethyl)propanamide], the IC50 on Dipeptidyl peptidase 4 was greater than 500 µM; on Dipeptidyl peptidase 2 it was 47 µM.
Take `CCC(NC(=O)[C@@H](N)CC1CCCCC1)P(=O)(Oc1ccccc1)Oc1ccccc1` (stereo partly drawn) [(2S)-2-amino-3-cyclohexyl-N-(1-diphenoxyphosphorylpropyl)propanamide]: the IC50 on Dipeptidyl peptidase 4 was greater than 1000 µM; against Dipeptidyl peptidase 2 it was 62 µM.
The corresponding values for `N[C@@H](CC1CCCCC1)C(=O)NC(C1CCCCC1)P(=O)(Oc1ccccc1)Oc1ccccc1` (stereo partly drawn) [(2S)-2-amino-3-cyclohexyl-N-[cyclohexyl(diphenoxyphosphoryl)methyl]propanamide] are greater than 250 µM and 30 µM.
Taken in the same sequence, the figures for `CCC(CC)C(NC(=O)[C@@H](N)C(C)CC)P(=O)(Oc1ccccc1)Oc1ccccc1` (stereo partly drawn) [(2S)-2-amino-N-(1-diphenoxyphosphoryl-2-ethyl-butyl)-3-methyl-pentanamide] were greater than 1000 µM and greater than 1000 µM.
As for `CCC(C)C(NC(=O)[C@@H](N)C(C)CC)P(=O)(Oc1ccccc1)Oc1ccccc1` (stereo partly drawn) [(2S)-2-amino-N-(1-diphenoxyphosphoryl-2-methyl-butyl)-3-methyl-pentanamide], the IC50 at Dipeptidyl peptidase 4 was greater than 1000 µM; on Dipeptidyl peptidase 2 it was 414 µM.
Take `CCC(C)[C@H](N)C(=O)NC(C(C)C)P(=O)(Oc1ccccc1)Oc1ccccc1` (stereo partly drawn) [(2S)-2-amino-N-(1-diphenoxyphosphoryl-2-methyl-propyl)-3-methyl-pentanamide]: the concentration for half-maximal inhibition (IC50) at Dipeptidyl peptidase 4 is greater than 1000 µM; at Dipeptidyl peptidase 2, 1000 µM.
With `CCC(C)[C@H](N)C(=O)NC(CC(C)C)P(=O)(Oc1ccccc1)Oc1ccccc1` (stereo partly drawn) [(2S)-2-amino-N-(1-diphenoxyphosphoryl-3-methyl-butyl)-3-methyl-pentanamide], the IC50 at Dipeptidyl peptidase 4 is greater than 1000 µM; against Dipeptidyl peptidase 2, 286 µM.
Turning to `CCCC(NC(=O)[C@@H](N)C(C)CC)P(=O)(Oc1ccccc1)Oc1ccccc1` (stereo partly drawn) [(2S)-2-amino-N-(1-diphenoxyphosphorylbutyl)-3-methyl-pentanamide], the results for the 50% inhibitory concentration (IC50) against Dipeptidyl peptidase 4 and at Dipeptidyl peptidase 2 were greater than 1000 µM and 1000 µM, respectively.
The corresponding values for `CC(NC(=O)[C@@H](N)Cc1cnc[nH]1)P(=O)(Oc1ccccc1)Oc1ccccc1` (stereo partly drawn) [(2S)-2-amino-N-(1-diphenoxyphosphorylethyl)-3-(1H-imidazol-4-yl)propanamide] are greater than 500 µM and greater than 500 µM.
As to `CC(NC(=O)[C@@H](N)Cc1ccc(O)cc1)P(=O)(Oc1ccccc1)Oc1ccccc1` (stereo partly drawn) [(2S)-2-amino-N-(1-diphenoxyphosphorylethyl)-3-(4-hydroxyphenyl)propanamide], the IC50 against Dipeptidyl peptidase 4 and on Dipeptidyl peptidase 2 was greater than 500 µM throughout.
`CC(NC(=O)[C@@H](N)CO)P(=O)(Oc1ccccc1)Oc1ccccc1` (stereo partly drawn) [(2S)-2-amino-N-(1-diphenoxyphosphorylethyl)-3-hydroxy-propanamide]: the half-inhibitory concentration (IC50) at Dipeptidyl peptidase 4 was greater than 500 µM; on Dipeptidyl peptidase 2, greater than 1000 µM.
For the compound `CC(C)[C@H](N)C(=O)NC(C)P(=O)(Oc1ccccc1)Oc1ccccc1` (stereo partly drawn) [(2S)-2-amino-N-(1-diphenoxyphosphorylethyl)-3-methyl-butanamide], the IC50 against Dipeptidyl peptidase 4 was greater than 500 µM; against Dipeptidyl peptidase 2 it was less than 1000 µM.
Regarding `CCC(C)[C@H](N)C(=O)NC(C)P(=O)(Oc1ccccc1)Oc1ccccc1` (stereo partly drawn) [(2S)-2-amino-N-(1-diphenoxyphosphorylethyl)-3-methyl-pentanamide], the IC50 on Dipeptidyl peptidase 4 was greater than 500 µM; against Dipeptidyl peptidase 2, 116 µM.
Consider `CC(NC(=O)[C@@H](N)Cc1ccccc1)P(=O)(Oc1ccccc1)Oc1ccccc1` (stereo partly drawn) [(2S)-2-amino-N-(1-diphenoxyphosphorylethyl)-3-phenyl-propanamide], for which the IC50 is greater than 500 µM against Dipeptidyl peptidase 4 and less than 1000 µM at Dipeptidyl peptidase 2.
As to `CC(C)C[C@H](N)C(=O)NC(C)P(=O)(Oc1ccccc1)Oc1ccccc1` (stereo partly drawn) [(2S)-2-amino-N-(1-diphenoxyphosphorylethyl)-4-methyl-pentanamide], the IC50 against Dipeptidyl peptidase 4 was greater than 1000 µM; at Dipeptidyl peptidase 2 it was greater than 500 µM.
For `CC(NC(=O)[C@@H](N)CC(N)=O)P(=O)(Oc1ccccc1)Oc1ccccc1` (stereo partly drawn) [(2S)-2-amino-N-(1-diphenoxyphosphorylethyl)butanediamide], the concentration for half-maximal inhibition (IC50) against Dipeptidyl peptidase 2 was 286 µM.
The same measure, in the same setting: the same measure for `CC(NC(=O)[C@H](C)N)P(=O)(Oc1ccccc1)Oc1ccccc1` (stereo partly drawn) [(2S)-2-amino-N-(1-diphenoxyphosphorylethyl)propanamide]: less than 1000 µM.
With `CCC(C)[C@H](N)C(=O)NC(CC)P(=O)(Oc1ccccc1)Oc1ccccc1` (stereo partly drawn) [(2S)-2-amino-N-(1-diphenoxyphosphorylpropyl)-3-methyl-pentanamide], the IC50 was greater than 1000 µM against Dipeptidyl peptidase 4 and 1000 µM against Dipeptidyl peptidase 2.
For `CCC(C)[C@H](N)C(=O)NC(c1cccc(C#N)c1)P(=O)(Oc1ccccc1)Oc1ccccc1` (stereo partly drawn) [(2S)-2-amino-N-[(3-cyanophenyl)-diphenoxyphosphoryl-methyl]-3-methyl-pentanamide], the results for the IC50 at Dipeptidyl peptidase 4 and against Dipeptidyl peptidase 2 were greater than 125 µM and 509 µM, respectively.
`CCC(C)[C@H](N)C(=O)NC(c1ccc(C#N)cc1)P(=O)(Oc1ccccc1)Oc1ccccc1` (stereo partly drawn) [(2S)-2-amino-N-[(4-cyanophenyl)-diphenoxyphosphoryl-methyl]-3-methyl-pentanamide]: the IC50 at Dipeptidyl peptidase 4 is greater than 250 µM; at Dipeptidyl peptidase 2, 150 µM.
With `N[C@@H](Cc1cnc[nH]1)C(=O)NC(C1CCCCC1)P(=O)(Oc1ccccc1)Oc1ccccc1` (stereo partly drawn) [(2S)-2-amino-N-[cyclohexyl(diphenoxyphosphoryl)methyl]-3-(1H-imidazol-4-yl)propanamide], the 50% inhibitory concentration (IC50) was greater than 1000 µM against Dipeptidyl peptidase 4 and 241 µM against Dipeptidyl peptidase 2.
Regarding `CCC(C)[C@H](N)C(=O)NC(C1CCCCC1)P(=O)(Oc1ccccc1)Oc1ccccc1` (stereo partly drawn) [(2S)-2-amino-N-[cyclohexyl(diphenoxyphosphoryl)methyl]-3-methyl-pentanamide], the half-maximal inhibitory concentration (IC50) at Dipeptidyl peptidase 4 is greater than 1000 µM; against Dipeptidyl peptidase 2 it was 148 µM.
Regarding `CCC(C)[C@H](N)C(=O)NC(c1ccccc1)P(=O)(Oc1ccccc1)Oc1ccccc1` (stereo partly drawn) [(2S)-2-amino-N-[diphenoxyphosphoryl(phenyl)methyl]-3-methyl-pentanamide], the IC50 against Dipeptidyl peptidase 4 is greater than 250 µM; against Dipeptidyl peptidase 2, 18 µM.
On to `O=C(CNC1CCCC1)NC(C1CCCCC1)P(=O)(Oc1ccccc1)Oc1ccccc1` (centres undefined) [N-[cyclohexyl(diphenoxyphosphoryl)methyl]-2-(cyclopentylamino)acetamide], for which the IC50 at Dipeptidyl peptidase 4 is greater than 125 µM; on Dipeptidyl peptidase 2, 8 µM.

As a reminder, the IC50 is the midpoint of a concentration-inhibition curve. Read a high IC50 as a need for much substance.
